Patent publication US9168247B2, “Beta carboline derivatives useful in the treatment of proliferative disorders” (FACULTES UNIVERSITAIRES NOTRE DAME DE LA PAIX, priority 2010, dated 2015)
Read-outs that look alike come from different tables or passages of the source.

How the values were obtained:
U373 glioma cells = assay: MTT test, overall cell growth, U373; type: cell-based, human; details: 72 hours of incubation
Description: (§1) MTT tests were performed in order to rapidly, i.e., within 5 days, measure the effect of the present compounds on the overall cell growth. The test measured the number of metabolically active living cells that were able to transform the yellow product 3-(4,5-dimethylthiazol-2-yl)-2,5-diphenyl tetrazolium bromide (herein referred as MTT) into the blue product formazan dye by mitochondrial reduction. The amount of formazan obtained at the end of the experiment, measured by means of a spectrophotometer, is directly proportional to the number of living cells. Optical density determination thus enabled a quantitative measurement of the effect of the investigated compounds as compared to the control condition (untreated cells) and/or to other reference compounds.
(§2) Five human cancer cell lines set forth in Table 3 were used in the MTT tests. These cancer cell lines cover two histological cancer types including glioma (Hs683, T98G, U373), and oesophageal (OE21, OE33) cancers. The U373 cell line is apoptosis-resistant but autophagy-sensitive.
(§3) To perform the assay, cells were allowed to grow in 96-well micro-wells with a flat bottom with an amount of 100 μl of cell suspension per well with 5,000 to 8,000 cells/well depending on the cell type used. Each cell line was seeded in its appropriate culture medium.
(§4) The detailed experimental procedure was as follows: after a 24-hour period of incubation at 37° C., the culture medium was replaced by 100 μl of fresh medium in which the tested compound was previously dissolved, at the following molar concentrations: 1×10^−8 M, 5×10^−8 M, 1×10^−7 M, 5×10^−7 M, 1×10^−6 M, 5×10^−6 M, 1×10^−5 M, 5×10^−5 M and 1×10^−4 M. Each experiment was performed in sestuplicate (6 times).
(§5) After 72 hours of incubation at 37° C. with (experimental conditions) or without (control condition) the compound to be tested, the medium was replaced by 100 μl MTT dissolved in RPMI (1640 without phenol red) at a concentration of 0.5 or 1 mg/ml. The micro-wells were subsequently incubated during 3 hours and a half at 37° C. and centrifuged at 1300 rpm during 10 minutes. MTT was removed and formazan crystals formed were dissolved in […]. The micro-wells were shaken for 5 minutes and read on a spectrophotometer at wavelengths of 570 nm (maximal formazan absorbance).
(§6) For each experimental condition, the mean optical density was calculated, allowing the determination of the percentage of remaining living cells in comparison to the control.
(§7) The origin of all the cell lines we used, along with their biological characteristics, and the validation procedures of the MTT colorimetric assay as employed here are fully detailed in Van Quaquebeke et al., 2005, J Med Chem 48:849-856; Ingrassia et al., 2009, J Med Chem 52:1100-1114; Mathieu et al., 2009, J Cell Mol Med, Feb. 20, 2009.

T98G glioma cells = assay: MTT test, overall cell growth, T98G; type: cell-based, human; details: 72 hours of incubation
Description: as §1, §2, §3, §4, §5, §6, §7

Hs683 glioma cells = assay: MTT test, overall cell growth, Hs683; type: cell-based, human
Description: as §1, §2, §3, §4, §5, §6, §7

[1] = system: OE21 oesophageal cancer cells; assay: MTT test, overall cell growth, OE21; type: cell-based, human
Description: as §1, §2, §3, §4, §5, §6, §7

[2] = system: OE33 oesophageal cancer cells; assay: MTT test, overall cell growth, OE33; type: cell-based, human
Description: as §1, §2, §3, §4, §5, §6, §7

[3] = system: human cancer cell lines (U373, T98G, Hs683, OE21, OE33); assay: MTT test, mean over the cancer cell lines; type: cell-based
Description: as §1, §2, §3, §4, §5, §6, §7

U373 cells = assay: Cellular imaging (videomicroscopy) of cultured U373 cells: antiproliferative class and global growth ratio; type: cell-based, human; parameters: key to Anti proliferative class / anti-proliferative class-GGR: class I: actually cytostatic for 3 days (<10% of cell death at the 3rd day); class II: cyctostatic but becomes cytotoxic with <10% cell death on the 2nd day, and >20% of cell death on the 3rd day; class III: cytostatic but rapidly becomes cytotoxic with <10% cell death on the 1st day, >20% of cell death on the 2nd day and >50% of cell death on the 3rd day; class IV: cytotoxic (>50% of cell death on the first day); details: for global growth ratio (GGR): GG treated cells/GG control cells, 72 h after drug addition, drug at its IC50 (MTT-test determined); for Anti proliferative class: cellular imaging of cultured U373 cells over three consecutive days
Excerpt: The effects of the di- and tri-substituted beta-carboline derivatives as described herein can also be determined on cell proliferation, migration and morphology by means of a cellular imaging approach (Debeir et al., Cytometry 60:29-40, 2004; Debeir et al., IEEE Trans Med Imaging 24:697-711, 2005) either in, e.g., the human U373-MG glioma cell line, which is apoptosis-resistant but autophagy-sensitive (Lefranc F et al., Neurosurgery 2008) or in, e.g., the human A549 non-small-cell-lung cancer cell line, which is apoptosis-resistant and autophagy-resistant (Mijatovic T et al., Neoplasia 2006, May; 8(5):402-12).
[…] The experiments are conducted in quadruplicates.
The behaviour of the cells, in terms of morphology, growth and death are thus investigated. The effect on the overall growth is measured by counting the number of cells on the first (0 h) and the last image (72 h) of each film. The global growth ratio (GGR) is then deduced by dividing the number of cells on the last image by the number of cells on the first image. The ratio GGRtreated cells/GGRcontrol cells is further calculated thereby providing a value that describes the effect of compounds of the present invention on the overall cell growth.
The methodology is fully described and validated in Debeir et al., 2008, Exp Cell Res 314:2985-2998 and Mathieu et al., 2009, J Cell Mol Med, Feb. 20, 2009.

[4] = Homo sapiens, Hs 683, 72 hours of incubation
[5] = Homo sapiens, OE21, 72 hours of incubation
[6] = Homo sapiens, OE33, 72 hours of incubation
[7] = Homo sapiens, mean over the cancer cell lines, MTT test, read-out: IC50 Mean ± SEM
[8] = mean over the cancer cell lines, MTT test, read-out: IC50 Mean ± SEM

Structure (SMILES)	IC50 (U373 glioma cells; Homo sapiens, U373 MG) [µM]	IC50 (T98G glioma cells; Homo sapiens, T98G) [µM]	IC50 (Hs683 glioma cells; [4]) [µM]	IC50 [1, 5] [µM]	IC50 [2, 6] [µM]	IC50 ([3]; Homo sapiens, Glioma cell, MTT assay, submicromolar range, e.g. as low as, read-out: mean anti-proliferative effect on the glioma cell lines) [µM]	IC50 ([3]; Homo sapiens, Table 4, mean over cell lines, read-out: IC50 μM growth inhibition (MTT test)) [µM]	IC50 [3, 7] [µM]	global growth ratio (GGR) (U373 cells)	Anti proliferative class (U373 cells)	IC50 (U373 glioma cells) [µM]	IC50 (T98G glioma cells) [µM]	IC50 (Hs683 glioma cells; 72 hours of incubation) [µM]	IC50 ([1]; 72 hours of incubation) [µM]	IC50 ([2]; 72 hours of incubation) [µM]	IC50 [3, 8] [µM]
Cc1c2c(cc[n+]1Cc1ccccc1)c1ccc(OCC3CCCCC3)cc1n2CC1CCCCC1.[Br-] [CV24, 1-methyl-2-benzyl-7-cyclohexylmethyloxy-9-cyclohexylmethyl-β-carbolin-2-ium bromide]	0.37 ± 0.02	0.16 ± 0.03	0.38 ± 0.009	0.42 ± 0.008	0.37 ± 0.01	0.34 to 0.8	0.34	0.34 ± 0.05	0.3	I (class I: actually cytostatic for 3 days (<10% of cell death at the 3rd day))	–	–	–	–	–	–
CCCn1c2cc(OCc3ccccc3)ccc2c2ccnc(C)c21 [CV33, 1-methyl-7-benzyloxy-9-propyl-β-carboline]	26 ± 1	34 ± 1	13 ± 1	23 ± 2	9 ± 1	–	–	21 ± 4	0.3	III	–	–	–	–	–	–
Cc1nccc2c1[nH]c1cc(OCCc3ccccc3)ccc12 [JR155]	–	–	–	–	–	–	–	–	0.2	IV (class IV: cytotoxic (>50% of cell death on the first day))	9.1 ± 0.6	21 ± 1	21 ± 3	14 ± 1	7.9 ± 0.3	15 ± 3
Cc1c2c(cc[n+]1Cc1ccc(F)cc1)c1ccc(OCc3ccc(F)cc3)cc1n2Cc1ccc(F)cc1.[Br-] [CV29, 1-methyl-2-(4-fluorobenzyl)-7-(4-fluorobenzyl)oxy-9-(4-fluorobenzyl)-β-carbolin-2-ium bromide]	2.9 ± 0.1	14 ± 2	13 ± 1	3.7 ± 0.2	3.1 ± 0.3	–	–	7 ± 3	0.1	IV (class IV: cytotoxic (>50% of cell death on the first day))	–	–	–	–	–	–
Cc1c2c(cc[n+]1Cc1ccc(F)cc1)c1ccc(OCc3ccccc3)cc1n2Cc1ccccc1.[Br-] [CV17, 1-methyl-2-(4-fluorobenzyl)-7-benzyloxy-9-benzyl-β-carbolin-2-ium bromide]	0.59 ± 0.06	0.56 ± 0.05	1.6 ± 0.3	0.61 ± 0.04	2.4 ± 0.3	–	–	1.2 ± 0.4	0.4	I (class I: actually cytostatic for 3 days (<10% of cell death at the 3rd day))	–	–	–	–	–	–
Cc1nccc2c1[nH]c1cc(OCc3ccncc3)ccc12 [JR222]	–	–	–	–	–	–	–	–	0.4	II	2.5 ± 0.2	3.6 ± 0.2	8.1 ± 0.2	5 ± 0.4	6.3 ± 0.1	5 ± 1
Cc1nccc2c3ccc(OCc4cccc(F)c4)cc3n(Cc3cccc(F)c3)c12 [CV5, 1-methyl-7-(3-fluorobenzyloxy)-9-(3-fluorobenzyl)-β-carboline]	0.4 ± 0.06	27 ± 1	17.5 ± 0.9	7.9 ± 0.2	16 ± 2	–	–	14 ± 5	0.9	I (class I: actually cytostatic for 3 days (<10% of cell death at the 3rd day))	–	–	–	–	–	–
Cc1c2c(cc[n+]1Cc1ccc(F)cc1)c1ccc(OCc3cccc(F)c3)cc1n2Cc1cccc(F)c1.[Br-] [CV22, 1-methyl-2-(4-fluorobenzyl)-7-(3-fluorobenzyl)oxy-9-(3-fluorobenzyl)-β-carbolin-2-ium bromide]	0.9 ± 0.1	1.9 ± 0.3	4.5 ± 0.4	2.9 ± 0.1	3.4 ± 0.1	–	–	2.7 ± 0.6	0.5	I (class I: actually cytostatic for 3 days (<10% of cell death at the 3rd day))	–	–	–	–	–	–
Cc1nccc2c3ccc(O)cc3n(Cc3ccccc3)c12 [CV27, 1-methyl-7-hydroxy-9-benzyl-β-carboline]	80 ± 2	81 ± 11	79 ± 4	35 ± 2	35 ± 2	–	–	62 ± 11	0.2	II	–	–	–	–	–	–
C=CCOc1ccc2c(c1)[nH]c1c(C)nccc12 [JR211]	–	–	–	–	–	–	–	–	0.2	II	32 ± 2	32 ± 0.7	28 ± 1	27 ± 2	29.8 ± 0.7	30 ± 1
Cc1nccc2c3ccc(OCc4ccc(F)cc4)cc3n(Cc3ccc(F)cc3)c12 [CV11, 1-methyl-7-(4-fluorobenzyloxy)-9-(4-fluorobenzyl)-β-carboline]	30 ± 1	14 ± 2	17 ± 2	15 ± 2	25 ± 2	–	–	20 ± 3	0.2	III	–	–	–	–	–	–
Cc1nccc2c1[nH]c1cc(OCc3cccc4ccccc34)ccc12 [JR147]	–	–	–	–	–	–	–	–	0.2	IV (class IV: cytotoxic (>50% of cell death on the first day))	7.4 ± 0.4	12 ± 2	19 ± 2	33 ± 8	8.2 ± 0.4	16 ± 5
CCCn1c2cc(OCc3ccccc3)ccc2c2cc[n+](Cc3ccc(F)cc3)c(C)c21.[Br-] [CV36, 1-methyl-2-(4-fluorobenzyl)-7-benzyloxy-9-propyl-β-carbolin-2-ium bromide]	0.88 ± 0.06	5.7 ± 0.2	3.1 ± 0.6	1.9 ± 0.3	1 ± 0.1	–	–	2.5 ± 0.9	0.1	IV (class IV: cytotoxic (>50% of cell death on the first day))	–	–	–	–	–	–
Cc1c2[nH]c3cc(OCc4ccccc4)ccc3c2cc[n+]1Cc1ccccc1 [JR88]	–	–	–	–	–	–	–	–	0.2	II	3.9 ± 0.2	5.6 ± 0.2	3.6 ± 0.1	6 ± 0.6	5.5 ± 0.3	5 ± 1
